The source of these data is patent US9060993B2, “Compositions and methods for treating cancer” (The Trustees of the University of Pennsylvania, priority 2003, dated 2015).

The subject of test [1] is FL5.12 cells. Put plainly: Cell proliferation and survival of IL-3 stimulated FL5.12 cells in culture. Type of test: cell-based. The method, then:
As a result, we have investigated the ability of hydroxycitrate to inhibit the proliferative response of FL5.12 cells stimulated by interleukin-3. […] The IC50 of this effect approximates the efficacy of hydroxycitrate in inhibiting ACL-dependent fatty acid synthesis as reported by others (Pearce et al. 1998).
(§1) When 3-carbox-11-(2,4-dichlorophenyl)-3,5dihydroxyundecanoic acid (see FIG. 4 for structures) is added to mitogen stimulated cell extracts with an IC50 of approximately 3 μM and when cells were treated with a γ-lactone derivative that is cell permeant, the cell proliferation was inhibited at approximately a 10 μM concentration and both cell proliferation and cell survival were inhibited at 30 μM concentrations (FIG. 6).

Test [2] relates to cells transfected with the oncogene Bcl-xL. Briefly: Proliferation and cell death of Bcl-xL-transfected cells in presence or absence of the mitogen IL-3. The note with it: 30 μM, FIG. 11. Type of test: cell-based.
The subject of test [3] is Bax/Bak-deficient, IL-3-dependent cell lines. Briefly: Mitogen-induced cell growth of Bax/Bak-deficient, IL-3-dependent cell lines. Format: cell-based, mice. The note with it: 30 μM, resting cells treated with IL-3; FIG. 14.
Test [4] concerns mitogen-stimulated cells and proliferating transformed cell cultures. Put plainly: Cell cycle analysis of mitogen-stimulated cells and proliferating transformed cell cultures. Format: cell-based. The note with it: 30 μM; FIG. 8. How it is done:
as §1

Test [5] concerns hematopoietic IL3-dependent cell lines. Briefly: In vitro apoptosis assay (Annexin V / propidium iodide flow cytometry). The note with it: 30 μM; FIG. 9. Format: cell-based. How it is done: Remove 500 μl of treated or untreated cells (at concentrations of 0.5-1×10^6 cells/ml) to a FACS tube and add 50 μl of 10× Annexin V binding buffer (BD Biosciences Pharmingen, San Diego, Calif.) to each tube. Stain cells with Annexin V-FITC (BD Biosciences Phanningen, San Diego, Calif. ) using 4 μl Annexin V-FITC and propidium iodide (Molecular Probes, Eugene, Oreg.) at a final concentration of 3 μg/ml of cells. The cells are preferably hematopoietic IL3-dependent cell lines such as for example IL3-dependent FL5.12 pro-B cells transfected with different transgenes (Bcl-xL, myrAkt) or vector control plasmids and IL3-dependent cells isolated from the bone marrow of Bax−/−Bak−/− knockout mice. Incubate at 37° for 30 minutes. Perform flow cytometry. Early apoptotic cells are Annexin V positive, propidium iodide negative while late apoptotic cells are both Annexin V and propidium iodide positive.
as §1

For test [6], the target named is T1, ATP citrate lyase (Mus musculus, UniProt Q91V92).
T1 construct: is added to mitogen stimulated cell extracts with an IC50 of approximately 3 μM; endogenous in cells; host or cells: IL-3-dependent cell line (FL5.12), mitogen-stimulated; cytosolic extract
T1 sequence (Q91V92 1-1091): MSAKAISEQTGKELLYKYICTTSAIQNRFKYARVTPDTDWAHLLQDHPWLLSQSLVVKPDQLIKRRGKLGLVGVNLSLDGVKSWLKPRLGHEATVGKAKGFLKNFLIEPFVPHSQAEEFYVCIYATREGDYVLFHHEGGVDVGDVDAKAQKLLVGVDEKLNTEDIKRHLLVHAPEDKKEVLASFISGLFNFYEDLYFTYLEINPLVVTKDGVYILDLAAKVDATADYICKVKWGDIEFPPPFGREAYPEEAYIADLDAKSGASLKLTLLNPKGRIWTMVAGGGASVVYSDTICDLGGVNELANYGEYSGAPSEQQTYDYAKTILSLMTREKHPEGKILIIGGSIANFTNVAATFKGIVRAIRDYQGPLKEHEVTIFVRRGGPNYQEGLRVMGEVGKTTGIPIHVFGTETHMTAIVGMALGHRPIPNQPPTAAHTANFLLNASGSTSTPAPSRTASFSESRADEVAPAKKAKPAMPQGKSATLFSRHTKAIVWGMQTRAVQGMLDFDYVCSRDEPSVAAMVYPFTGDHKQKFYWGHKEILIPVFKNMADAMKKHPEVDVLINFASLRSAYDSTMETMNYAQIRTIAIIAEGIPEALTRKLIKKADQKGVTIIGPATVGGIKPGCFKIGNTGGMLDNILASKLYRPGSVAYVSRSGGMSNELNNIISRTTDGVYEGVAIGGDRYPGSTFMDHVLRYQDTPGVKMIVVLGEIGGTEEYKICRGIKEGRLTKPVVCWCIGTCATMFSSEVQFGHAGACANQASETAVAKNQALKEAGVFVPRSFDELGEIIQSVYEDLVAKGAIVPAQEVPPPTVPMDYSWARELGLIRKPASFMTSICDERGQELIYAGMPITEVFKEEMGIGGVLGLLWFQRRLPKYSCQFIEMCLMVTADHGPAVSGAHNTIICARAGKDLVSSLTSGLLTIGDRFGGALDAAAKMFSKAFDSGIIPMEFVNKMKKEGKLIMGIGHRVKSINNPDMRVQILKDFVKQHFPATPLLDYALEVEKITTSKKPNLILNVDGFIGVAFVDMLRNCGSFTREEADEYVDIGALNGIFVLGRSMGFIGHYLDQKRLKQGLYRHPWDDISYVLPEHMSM
Briefly: ATP citrate lyase activity in cellular extracts (malate dehydrogenase coupled, NADH consumption at 340 nm). Type of test: biochemical. The note with it: mitogen stimulated cell extracts.
Experimental: To investigate the potential induction of ATP citrate lyase in response to mitogen stimulation of cell proliferation, an assay was developed to quantitate ATP citrate lyase (ACL) activity in cellular extracts. As a positive control, stable transfectants of a cell line dependent on IL-3 for the induction of cell proliferation was also produced. The cytosolic extracts from the wild type cells and ATP citrate lyase transfected cells were analyzed by determining the level of ATP citrate lyase activity per 10^6 cells as determined by the malate dehydrogenase catalyzed reduction of oxaloacetate by NADH. NADH consumption was measured by monitoring the reaction at 340 nm. Assays were run by providing citrate at 100 μM in the presence of 5 mM ATP and 300 μM of CoA.

Each structure is given as a SMILES string.

For `O=C(O)CC(O)(C(=O)O)C(O)C(=O)O` (centres unmarked) [hydroxycitrate], the “overall cell number and viability of cells in culture” value in test [1] (added to IL-3-containing cultures of FL5.12, FIG. 3) was “progressive decline in the overall cell number and viability”.

Regarding `O=C(O)C[C@@]1(O)C[C@@H](CCCCCCc2ccc(Cl)cc2Cl)OC1=O` [γ-lactone derivative], in test [2] (in presence of IL-3), the cell death entry is on record as “induction of apoptotic cell death” and the mitogen-induced cell proliferation result is on record as “near complete inhibition”. Further, the “toxicity in nongrowing cells” value in test [2] (nongrowing cells (IL-3 withdrawal)) is given as “relatively nontoxic”. For the same molecule, the mitogen-induced cell growth entry in test [3] is reported as “nearly completely inhibited”. The cell cycle effect entry in test [4] is given as “G1 arrest”. Further, in test [1] (FIG. 6), the “concentration at which both cell proliferation and cell survival were inhibited” value worked out at 30 µM. In test [1] (cells treated with cell permeant γ-lactone, FIG. 6), the “concentration at which cell proliferation was inhibited” value was around 10 µM. Moreover, the “inhibition of cell proliferation in each independent cell clone” value in test [1] (immortalized hematopoietic cells, independent clones, doses between 10 and 30 μM, FIG. 7) is “approximately 50%”. For the same molecule, the “annexin-V positivity (induction of apoptosis)” value in test [5] was “rapid induction of the annexin-V positivity”.

`O=C(O)CC(O)(CC(O)CCCCCCc1ccc(Cl)cc1Cl)C(=O)O` (centres unmarked) [3-carbox-11-(2,4-dichlorophenyl)-3,5dihydroxyundecanoic acid] came in with an IC50 in test [6] of around 3 µM.
